Test results taken from the NIST ThermoML archive (doi:10.1021/acs.jced.6b00362).

Experiments:
[1] = Crystal; DTA
[2] = refractive index (other wavelength) (dimensionless); conditions: 101 kPa, Liquid, Wavelength=632.8 nm, ellipsometry
[3] = refractive index (other wavelength) (dimensionless); xn = mol fraction of the nth substance listed; conditions: Liquid, Wavelength=632.8 nm, ellipsometry

[Cl][Ce]([Cl])[Cl] [cerium trichloride]
Conditions	Normal melting temperature [°C]
[1]	822

[2]
Conditions	refractive index
1103 K	1.697
1133 K	1.691
1153 K	1.688
1173 K	1.685
1193 K	1.681
1213 K	1.678
1233 K	1.674

[Cl][Ce]([Cl])[Cl] [cerium trichloride] + [Cl-].[Cs+]
refractive index, [3], 100 kPa
Conditions	x1 = 0.25	x1 = 0.5	x1 = 0.75	x1 = 1
1073 K	1.495	1.553	1.627	–
1103 K	1.49	1.549	1.623	1.697
1123 K	1.487	1.545	1.619	–
1133 K	–	–	–	1.691
1153 K	1.482	1.54	1.614	1.688
1173 K	1.479	1.537	1.61	1.685
1193 K	–	–	–	1.681
1203 K	–	1.532	–	–
1213 K	–	1.53	–	1.678
1223 K	–	–	1.601	–
1233 K	–	–	–	1.674

[Cl][Ce]([Cl])[Cl] [cerium trichloride] + [Cl-].[K+]
refractive index, [3], 100 kPa
Conditions	1073 K	1103 K	1123 K	1133 K	1153 K	1173 K	1193 K	1203 K	1213 K	1233 K
x1 = 0.25	1.478	1.475	1.471	–	1.466	1.463	1.46	–	–	–
x1 = 0.5	1.56	1.554	1.552	–	1.548	1.544	–	1.54	–	–
x1 = 0.75	1.591	1.586	1.583	–	1.582	1.575	–	–	–	–
x1 = 1	–	1.697	–	1.691	1.688	1.685	1.681	–	1.678	1.674

[Cl][Ce]([Cl])[Cl] [cerium trichloride] + [Cl-].[Na+]
refractive index, [3], 101 kPa
Conditions	1073 K	1103 K	1123 K	1133 K	1153 K	1173 K	1193 K	1213 K	1223 K	1233 K
x1 = 0.25	1.515	1.51	1.507	–	1.502	1.5	–	–	–	–
x1 = 0.5	1.595	1.59	1.587	–	1.582	1.58	1.578	–	–	–
x1 = 0.75	1.656	1.651	1.647	–	1.642	1.639	1.636	–	1.631	–
x1 = 1	–	1.697	–	1.691	1.688	1.685	1.681	1.678	–	1.674

[Cl-].[Cs+] [cesium chloride]
[2]
Conditions	refractive index
1023 K	1.439
1033 K	1.438
1053 K	1.434
1073 K	1.43
1093 K	1.426
1113 K	1.423
1133 K	1.419
1153 K	1.415
1173 K	1.411

[Cl-].[Cs+] [cesium chloride] + [Cl-].[Cl-].[Cl-].[Gd+3]
[3], 100 kPa, x2 = 0
Conditions	refractive index
1023 K	1.439
1033 K	1.438
1053 K	1.434
1073 K	1.43
1093 K	1.426
1113 K	1.423
1133 K	1.419
1153 K	1.415
1173 K	1.411
